Counter-ions that a name gives are not always drawn.
Assays:
[1] = Salt screen of Compound 2: XRPD after drying and humidification; conditions: vacuum 50° C. at least 3 h, >95% RH overnight
[2] = Solubility of salts of Compound 2 and free base in distilled water (gravimetric); assay type: physicochemical; conditions: for Solubility (mg solid/mL water): distilled water, RT, stirred 3 days, gravimetric; for XRPD Pattern Recovered: solid recovered after slurry in water at RT
Method: Solubility of the scaled-up salts of Compound 2 and free base Compound 2 was assessed in distilled water at RT. Approximately 30 mg of solid was weighed directly into 2 mL vials, and a 6 mm stir bar was added to each vial. Water was then incrementally added to the vials (starting with 1 vol.) and the resulting slurries were left to stir for 10-15 min prior to the next addition. As all solids remained in slurries upon the addition of 1 mL of water, the gravimetric method was adopted, and the vials were stirred at RT for 3 days before centrifuging. Supernatant solutions were recovered and evaporated to dryness at 50° C. in atmosphere on a hot plate, then placed at 50° C. under vacuum (˜−29 inHg) for 3 h before final weighing.

[3] = Solid-form stability study of salts of Compound 2 (75% RH, 40° C., 7 days); assay type: physicochemical; conditions: for Purity (%) After / Purity (%) Before: HPLC; for Purity (%) After / XRPD Pattern After: after 7 days at 75% RH and 40° C.; for Purity (%) Before: before stress test
Method: Solid-form stability studies were completed by weighing approximately 30 mg each of Form A of the camsylate, esylate, mesylate, and sulfate salts of Compound 2 into 4 mL vials and covering with a Kimwipe. The vials were placed inside a humidity chamber set to 75% RH at 40° C. for 7 days. The HPLC and XRPD data was collected to confirm the purity and identity of the solid forms. The four salts were physically and chemically stable. No decrease in purity (i.e. less than 0.1%) or form change was observed after a seven-day stress test at 75% relative humidity (RH) and 40° C. (Table 5).

[4] = system: ROS1-positive NSCLC; conditions: ROS1-positive NSCLC patients; cited from earlier work
[5] = Stability study of Compound 1 drug substance; assay type: physicochemical
Method: A stability study is conducted for Compound 1. Samples were stored at: 30° C.±2° C./65%±5% Relative Humidity (RH), or 40° C.±2° C./75%±5% RH. At regular intervals (e.g., initial, 1, 3, 6, 9, 12, 18, 24, and 36 months), tests are performed for description, assay, related substances, water content, polymorphic form, and chiral purity.
A stability study was conducted for Compound 1 crystalline free base Form 2. Samples were stored at: (1) 30° C.±2° C./65%±5% Relative Humidity (RH), with data collected at 0, 1, 3, 6, 9, and 12 months; and (2) 40° C.±2° C./75%±5% RH, with data collected at 0, 1, 3, and 6 months. At the indicated time points, tests were performed for description, assay, related substances, water content, polymorphic form, and chiral purity.

[6] = Dynamic vapour sorption (DVS); assay type: physicochemical; conditions: relative humidity from about 0 to about 90%, about 25° C.
Method: In one embodiment, the solid form is characterized by a DVS isotherm that matches the DVS isotherm depicted in FIG. 6. In one embodiment, the DVS isotherm is as measured at about 25° C.
Approximately, 10-20 mg of sample was placed into a mesh vapour sorption balance pan and loaded into a DVS Advantage dynamic vapour sorption balance by Surface Measurement Systems. The sample was subjected to a ramping profile from 40-90% relative humidity (RH) at 10% increments, maintaining the sample at each step until a stable weight had been achieved (dm/dt 0.004%, minimum step length 30 minutes, maximum step length 500 minutes) at 25° C. After completion of the sorption cycle, the sample was dried using the same procedure to 0% RH and then a second sorption cycle back to 40% RH. Two cycles were performed. The weight change during the sorption/desorption cycles were plotted, allowing for the hygroscopic nature of the sample to be determined. XRPD analysis was then carried out on any solid retained.

[7] = Solvent solubility screen; assay type: physicochemical; conditions: organic solvent or mixture, thermodynamic from solid; majority of the solvents investigated
From the text: Solids were recovered from these solutions by the addition of anti-solvent to give an indication of solid form, with Form 2 predominantly observed.

CCn1cc(Cc2cn(C)nc2-c2ccc(F)cc2[C@@H](C)Oc2cc(Br)cnc2N)c(Cl)n1 [Camsylate Salt]
Stability of crystalline salt pattern to drying and humidification [1]: stable to drying and humidification
Solubility (mg solid/mL water) [2]: <3 mg solid/mL water
XRPD Pattern Recovered [2]: Form A
Purity (%) After [3]: 99.65%
Purity (%) Before [3]: 99.59%
XRPD Pattern After [3]: Form A

C[C@@H](Oc1cc(-c2cnn(C3CCNCC3)c2)cnc1N)c1c(Cl)ccc(F)c1Cl [Crizotinib]
Median progression-free survival [4]: 9-19 months

CCn1cc(Cc2cn(C)nc2-c2ccc(F)cc2[C@@H](C)Oc2cc(Br)cnc2N)c(Cl)n1 [Esylate Salt]
Stability of crystalline salt pattern to drying and humidification [1]: stable to drying and humidification
Solubility (mg solid/mL water) [2]: 5 mg solid/mL water
XRPD Pattern Recovered [2]: Form A
Purity (%) After [3]: 99.75%
Purity (%) Before [3]: 99.75%
XRPD Pattern After [3]: Form A

CCn1nc(Cl)c2c1-c1cnc(N)c(c1)O[C@H](C)c1cc(F)ccc1-c1nn(C)cc1C2 [Form 2]
Chemical and physical stability (description, assay, related substances, polymorphic form, chiral purity) ([5]; 30° C.±2° C./65%±5% RH, 12 months (Example 21)): no meaningful change
Chemical and physical stability (description, assay, related substances, polymorphic form, chiral purity) ([5]; 40° C.±2° C./75%±5% RH, 6 months (Example 21)): no meaningful change
DVS weight increase [6]: about 0.3%

CCn1cc(Cc2cn(C)nc2-c2ccc(F)cc2[C@@H](C)Oc2cc(Br)cnc2N)c(Cl)n1 [Mesylate Salt]
Stability of crystalline salt pattern to drying and humidification [1]: stable to drying and humidification
Solubility (mg solid/mL water) [2]: 8 mg solid/mL water
XRPD Pattern Recovered [2]: Form A
Purity (%) After [3]: 99.94%
Purity (%) Before [3]: 99.92%
XRPD Pattern After [3]: Form A

CCn1cc(Cc2cn(C)nc2-c2ccc(F)cc2[C@@H](C)Oc2cc(Br)cnc2N)c(Cl)n1 [Sulfate Salt]
Stability of crystalline salt pattern to drying and humidification [1]: stable to drying and humidification
Solubility (mg solid/mL water) [2]: <3 mg solid/mL water
XRPD Pattern Recovered [2]: Form A
Purity (%) After [3]: 99.97%
Purity (%) Before [3]: 99.97%
XRPD Pattern After [3]: Form A

CCn1nc(Cl)c2c1-c1cnc(N)c(c1)O[C@H](C)c1cc(F)ccc1-c1nn(C)cc1C2 [lyophilized material]
solubility [7]: > 150 mg/mL
